The source of these data is ChEMBL document CHEMBL4257489, “Recent updates in the discovery and development of novel antimalarial drug candidates” (Medchemcomm, 2018).

Data set [1] can be described thus: Oral bioavailability in Sprague-Dawley rat at 10 mg/kg administered via gavage. The class given is ADME, organism-based. The note with it: in vivo.
The test system of data set [2] is Plasmodium berghei. Kind of data set: Antimalarial activity against Plasmodium berghei infected in mouse by Thompson test. The class given is functional.
Data set [3] can be described thus: Oral bioavailability in CD1 mouse at 10 mg/kg. The class given is ADME, organism-based. The note with it: in vivo.
Data set [4] can be described thus: Half life in CD1 mouse at 2.5 mg/kg, iv. The class given is ADME, organism-based. The note with it: in vivo.
Data set [5] relates to Plasmodium berghei. Kind of data set: Antimalarial activity against Plasmodium berghei infected in po dosed mouse measured after 3 doses by 4 day peter's test. The class given is functional. The note with it: 96 h.
Data set [6] deals with Plasmodium berghei. Kind of data set: Antimalarial activity against Plasmodium berghei infected in mouse assessed as cure rate at 30 mg/kg, po relative to control. Type of data set: functional.
Data set [7] in a line: Oral bioavailability in C57BL/6 mouse at 100 mg/kg. Type of data set: ADME, organism-based. The note with it: in vivo.
Data set [8] deals with Plasmodium berghei. Kind of data set: Antimalarial activity against GFP transfected Plasmodium berghei ANKA infected in NMRI mouse assessed as suppression of parasitemia at 100 mg/kg, po administered at 4, 24, 48, 72 hrs post infection measured at 96 hrs post infection by FACS analysis relative to control. The class given is functional.
The subject of data set [9] is Plasmodium berghei. Kind of data set: Antimalarial activity against GFP-fused Plasmodium berghei ANKA infected in NMRI mouse assessed as mouse survival at 100 mg/kg, po administered at 4, 24, 48, 72 hrs post infection. Type of data set: functional.
Data set [10] deals with Plasmodium berghei. Kind of data set: Antimalarial activity against GFP transfected Plasmodium berghei in ICR mouse engrafted with parasite infected erythrocytes assessed as reduction in parasitemia administered as po qd for 3 to 5 days post infection measured on day 3 to 30 by Giemsa staining-based microscopic method. Type of data set: functional.
Data set [11] is described as follows: Oral bioavailability in mouse at 15 mg/kg. The class given is ADME, organism-based. The note with it: in vivo.
A short description of data set [12]: Oral bioavailability in Sprague-Dawley rat at 20 +/- 0.2 mg/kg administered via gavage as solution. The class given is ADME, organism-based. The note with it: in vivo.
Data set [13] relates to Plasmodium falciparum. Kind of data set: Antimalarial activity against Plasmodium falciparum 3D7 0087/N9 in NODscid IL-2Rgammanull mouse engrafted with parasite infected human erythrocytes assessed as reduction in parasitemia administered via oral gavage starting from day 3 to day 6 post infection measured every 24 hrs during compound dosing by flow cytometric method. The class given is functional. The note with it: 3D7 0087/N9, po. (In general: A flow cytometer gives signals particle by particle.)

The nature of data set [14]: Oral bioavailability in beagle dog at 3 mg/kg. The class given is ADME, organism-based, Canis lupus familiaris. The note with it: in vivo.
A short description of data set [15]: Oral bioavailability in beagle dog at 30 mg/kg. The class given is ADME, organism-based, Canis lupus familiaris. The note with it: in vivo.
A short description of data set [16]: Oral bioavailability in Sprague-Dawley rat at 17 +/- 0.2 mg/kg administered via gavage as suspension. Type of data set: ADME, organism-based. The note with it: in vivo.
The subject of data set [17] is acetylcholinesterase (AChE). Kind of data set: Selectivity index, ratio of IC50 for human AchE to IC50 for Plasmodium falciparum NF54. The class given is toxicity. The note with it: read-out: Ratio IC50.
A short description of data set [18]: Oral bioavailability in rat. The class given is ADME, organism-based. The note with it: in vivo.
Data set [19] relates to hERG. Kind of data set: Selectivity index, ratio of IC50 for human ERG to IC50 for Plasmodium falciparum NF54. The class given is toxicity. The note with it: read-out: Ratio IC50.

As usually defined, the bioavailability is dose-corrected exposure relative to a reference, in per cent. One may read the ED50 as the midpoint of the dose-response relation. In general, half-life refers to how long it takes for the measured level to halve.

In the case of `CC1(C)N=C(N)N=C(N)N1OCCCOc1cc(Cl)c(Cl)cc1Cl`, the bioavailability in [1] was < 1%.

Consider `COc1cc2[nH]c(C)c(-c3ccc(Oc4ccc(OC(F)(F)F)cc4)cc3)c(=O)c2cc1Cl`, for which the 50% effect level in data set [2] (ED50) was put at a dose of 0.016 mg/kg.

Take `COc1ccc(NC(=O)N2CCCCN3[C@H](CN(C)C)[C@H](c4ccc(C#Cc5ccccc5)cc4)[C@@H]3C2)cc1`: the bioavailability in data set [3] came to 80%. Besides, in data set [4], the half-life was 32 h.

`FC1CCN(CCOc2ccc(C3CCC4(CC3)OOC3(OO4)C4CC5CC(C4)CC3C5)cc2)CC1` (centres undefined) showed an ED50 in [5] of 4 mg/kg. The Activity in data set [6] was 66%.

As to `COc1ccc2c(c1)CC[C@@H]1[C@@H]2CC[C@]2(C)[C@H](NCc3cc4ccccc4cc3O)CC[C@@H]12`, the bioavailability in [7] is < 5%. The Activity in [8] is 99.8%. The Survival in data set [9] was 27 days.

As to `N#Cc1cc(NC(=O)[C@H]2c3ccccc3C(=O)N(CC(F)(F)F)[C@@H]2c2cccnc2)ccc1F` [SJ-733], the ED50 in data set [10] and in data set [13] was < 5 mg/kg each time. In addition, the bioavailability in data set [11], in data set [12], in data set [14], in data set [15] and in data set [16] was > 30% each time.

As to `Cc1nc(Nc2ncc(N3CCN(C)[C@H](C)C3)c(Nc3cc(C)n(C)n3)n2)cc(C2CC2)c1F` [SUTIDIAZINE], the selectivity ratio in [17] and in [19] was > 1000 each time. Also, the bioavailability in data set [18] worked out at 80%.
